Laboratory results as given in patent publication US20230219965A1 (KSQ Therapeutics, Inc., priority 2020, published 2023).

target: USP1/UAF1 enzyme (Homo sapiens, UniProt O94782); assay: USP1/UAF1 deubiquitination assay (ubiquitin-rhodamine 110 substrate); assay type: biochemical; conditions: read-out: USP1 IC50 (Ub-Rho)
Method in brief: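 0.05 nM USP1/UAF1 was preincubated 10 min with compounds (dose response from 10 μM) in 50 mM Tris-HCl pH 7.8, 0.5 mM EDTA, 0.01% BSA, 1 mM DTT, 0.01% Tween-20. 150 nM ubiquitin-rhodamine 110 started the reaction, read kinetically 30 min at Ex480/Em540; IC50 by four-parameter fit versus no-enzyme and DMSO controls.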

Chain of USP1/UAF1 enzyme (O94782 whole entry): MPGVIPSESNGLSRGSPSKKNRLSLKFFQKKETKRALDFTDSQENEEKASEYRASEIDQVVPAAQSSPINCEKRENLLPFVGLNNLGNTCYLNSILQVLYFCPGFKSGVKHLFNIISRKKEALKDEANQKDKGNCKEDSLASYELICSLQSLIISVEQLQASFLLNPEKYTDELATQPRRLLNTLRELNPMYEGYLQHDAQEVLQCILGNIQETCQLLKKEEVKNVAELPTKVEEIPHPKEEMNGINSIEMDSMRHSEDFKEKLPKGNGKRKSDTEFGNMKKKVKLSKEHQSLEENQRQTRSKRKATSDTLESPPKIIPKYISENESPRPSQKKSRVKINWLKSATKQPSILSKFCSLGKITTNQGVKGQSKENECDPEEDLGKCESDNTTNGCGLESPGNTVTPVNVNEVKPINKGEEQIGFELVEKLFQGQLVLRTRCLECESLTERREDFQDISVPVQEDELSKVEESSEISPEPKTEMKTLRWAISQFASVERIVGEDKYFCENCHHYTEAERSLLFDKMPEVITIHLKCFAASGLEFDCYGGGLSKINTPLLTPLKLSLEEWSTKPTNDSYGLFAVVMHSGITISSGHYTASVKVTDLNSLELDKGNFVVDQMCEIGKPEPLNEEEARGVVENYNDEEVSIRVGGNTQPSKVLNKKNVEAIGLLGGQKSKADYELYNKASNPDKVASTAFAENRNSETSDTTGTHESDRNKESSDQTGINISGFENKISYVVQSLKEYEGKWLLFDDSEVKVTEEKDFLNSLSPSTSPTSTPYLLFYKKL
Chain of USP1/UAF1 enzyme (Q8TAF3 whole entry partner): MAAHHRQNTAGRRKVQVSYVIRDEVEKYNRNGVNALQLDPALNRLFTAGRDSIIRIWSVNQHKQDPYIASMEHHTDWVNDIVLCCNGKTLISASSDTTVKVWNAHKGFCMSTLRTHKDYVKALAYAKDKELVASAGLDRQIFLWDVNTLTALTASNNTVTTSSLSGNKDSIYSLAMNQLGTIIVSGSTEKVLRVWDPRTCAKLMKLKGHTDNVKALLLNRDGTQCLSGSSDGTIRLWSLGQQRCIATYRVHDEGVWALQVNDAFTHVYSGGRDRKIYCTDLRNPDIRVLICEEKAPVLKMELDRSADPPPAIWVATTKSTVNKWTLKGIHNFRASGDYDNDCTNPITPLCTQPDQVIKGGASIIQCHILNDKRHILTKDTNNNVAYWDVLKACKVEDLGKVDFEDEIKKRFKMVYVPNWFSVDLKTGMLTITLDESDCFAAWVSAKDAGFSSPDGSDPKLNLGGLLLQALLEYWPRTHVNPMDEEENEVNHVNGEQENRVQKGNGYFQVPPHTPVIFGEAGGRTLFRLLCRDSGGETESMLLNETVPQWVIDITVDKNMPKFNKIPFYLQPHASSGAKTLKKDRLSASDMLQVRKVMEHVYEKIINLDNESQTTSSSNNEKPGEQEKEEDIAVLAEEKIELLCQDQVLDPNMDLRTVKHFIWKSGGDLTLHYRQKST

Row | IC50 | Structure (SMILES)
1 | < 100 nM | COc1ncnc(C2CC2)c1-c1nc2n(n1)CCC(=O)N2C(C)c1ccc(-c2nc(C(F)(F)F)cn2C)cc1 (stereo not shown) [Example 378, 2-(4-cyclopropyl-6-methoxypyrimidin-5-yl)-4-(1-(4-(1-methyl-4-(trifluoromethyl)-1H-imidazol-2-yl)phenyl)ethyl)-6,7-dihydro-[1,2,4]triazolo[1,5-a]pyrimidin-5(4H)-one]
2 | < 100 nM | CCn1cc(C(F)(F)F)nc1-c1ccc(CN2C(=O)[C@@H](C)Cn3nc(-c4c(OC)ncnc4C4CC4)nc32)cc1 [Example 381, (S)-2-(4-cyclopropyl-6-methoxypyrimidin-5-yl)-4-(4-(1-ethyl-4-(trifluoromethyl)-1H-imidazol-2-yl)benzyl)-6-methyl-6,7-dihydro-[1,2,4]triazolo[1,5-a]pyrimidin-5(4H)-one]
3 | < 100 nM | Cn1cc(C(F)(F)F)nc1-c1ccc(Cn2c(=O)ccn3nc(-c4c(OC(F)F)ncnc4C4CC4)nc23)cc1F [Example 385, 2-(4-cyclopropyl-6-(difluoromethoxy)pyrimidin-5-yl)-4-(3-fluoro-4-(1-methyl-4-(trifluoromethyl)-1H-imidazol-2-yl)benzyl)-[1,2,4]triazolo[1,5-a]pyrimidin-5(4H)-one]
4 | < 100 nM | COc1ncnc(C2CC2)c1-c1nc2n(Cc3ccc(-c4nc(C(F)(F)F)cn4C)c(F)c3)c(=O)ccn2n1 [Example 386, 2-(4-cyclopropyl-6-methoxypyrimidin-5-yl)-4-(3-fluoro-4-(1-methyl-4-(trifluoromethyl)-1H-imidazol-2-yl)benzyl)-[1,2,4]triazolo[1,5-a]pyrimidin-5(4H)-one]
5 | < 100 nM | COc1ncnc(C2CC2)c1-c1cc2n(n1)CCCC2Nc1ccc(-c2nc(C(F)(F)F)cn2C)c(F)c1 (stereo not shown) [Example 388, 2-(4-cyclopropyl-6-methoxypyrimidin-5-yl)-N-(3-fluoro-4-(1-methyl-4-(trifluoromethyl)-1H-imidazol-2-yl)phenyl)-4,5,6,7-tetrahydropyrazolo[1,5-a]pyridin-4-amine]
6 | < 100 nM | [2H]C([2H])([2H])C([2H])([2H])n1cc(C(F)(F)F)nc1-c1ccc(NC2CCCn3nc(-c4c(OC)ncnc4C4CC4)cc32)cc1 (stereo not shown) [Example 389, 2-(4-cyclopropyl-6-methoxypyrimidin-5-yl)-N-(4-(1-(ethyl-d5)-4-(trifluoromethyl)-1H-imidazol-2-yl)phenyl)-4,5,6,7-tetrahydropyrazolo[1,5-a]pyridin-4-amine]

Second part, the molecule before the results:

Row | Structure (SMILES) | IC50
7 | CCn1cc(C(F)(F)F)nc1-c1ccc(CN2C(=O)[C@H](C)Cn3nc(-c4c(OC)ncnc4C4CC4)nc32)cc1 [Example 382, (R)-2-(4-cyclopropyl-6-methoxypyrimidin-5-yl)-4-(4-(1-ethyl-4-(trifluoromethyl)-1H-imidazol-2-yl)benzyl)-6-methyl-6,7-dihydro-[1,2,4]triazolo[1,5-a]pyrimidin-5(4H)-one] | < 100 nM
8 | COc1ncnc(C2CC2)c1-c1nc2n(n1)CC(C)C(=O)N2Cc1ccc(-c2nc(C(F)(F)F)cn2C(C)CF)cc1 (stereo not shown) [Example 383, 2-(4-cyclopropyl-6-methoxypyrimidin-5-yl)-4-(4-(1-(1-fluoropropan-2-yl)-4-(trifluoromethyl)-1H-imidazol-2-yl)benzyl)-6-methyl-6,7-dihydro-[1,2,4]triazolo[1,5-a]pyrimidin-5(4H)-one] | 100 to 500 nM
9 | CCn1cc(C(F)(F)F)nc1-c1ccc(C(C)N2C(=O)C(C)Cn3nc(-c4c(OC)ncnc4C4CC4)nc32)cc1 (stereo not shown) [Example 384, 2-(4-cyclopropyl-6-methoxypyrimidin-5-yl)-4-(1-(4-(1-ethyl-4-(trifluoromethyl)-1H-imidazol-2-yl)phenyl)ethyl)-6-methyl-6,7-dihydro-[1,2,4]triazolo[1,5-a]pyrimidin-5(4H)-one] | < 100 nM
10 | COc1ncnc(C2CC2)c1-c1cc2n(n1)CCCC2Nc1ccc(-c2nc(C(F)(F)F)cn2CCF)cc1 (stereo not shown) [Example 387, 2-(4-cyclopropyl-6-methoxypyrimidin-5-yl)-N-(4-(1-(2-fluoroethyl)-4-(trifluoromethyl)-1H-imidazol-2-yl)phenyl)-4,5,6,7-tetrahydropyrazolo[1,5-a]pyridin-4-amine] | < 100 nM
